Test results taken from ChEMBL document CHEMBL1159269, “Mechanistic evaluation of new plant-derived compounds that inhibit HIV-1 reverse transcriptase” (J Nat Prod, 1995).

Tests used:
[1] = biological target: T1, Human immunodeficiency virus type 1 reverse transcriptase (Human immunodeficiency virus 1, UniProt Q72547); experiment: Inhibition of HIV1 reverse transcriptase p66/p51
DNA polymerase beta = DNA polymerase beta (Homo sapiens, UniProt P06746); experiment: Inhibition of DNA polymerase beta
[2] = Inhibition of HIV2 reverse transcriptase p66/p51; parameters: species or system Human immunodeficiency virus 2
[3] = Inhibition of AMV reverse transcriptase; parameters: species or system Avian myeloblastosis virus
[4] = Inhibition of RNA polymerase
KB = experiment: Cytotoxicity against human KB cells; assay type: functional; conditions: read-out: ED50 (the source's name)
Lu1 = experiment: Cytotoxicity against human Lu1 cells; assay type: functional; conditions: read-out: ED50 (the source's name)
LNCaP = experiment: Cytotoxicity against human LNCAP cells; assay type: functional; conditions: read-out: ED50 (the source's name)
ZR-75-1 = experiment: Cytotoxicity against human ZR-75-1 cells; assay type: functional; conditions: read-out: ED50 (the source's name)
DNA = experiment: Binding affinity to calf thymus DNA assessed as inhibition of DNA peak at 260 nm wavelength at 250 ug/ml by HPLC; assay type: nucleic-acid assay; conditions: Bos taurus
[5] = biological target: Human immunodeficiency virus type 1 reverse transcriptase (Human immunodeficiency virus 1) (UniProt Q72547); experiment: Inhibition of HIV1 reverse transcriptase p66/p51 at 50 ug/ml in presence of 2.5 ug/ml BSA
[6] = biological target: Human immunodeficiency virus type 1 reverse transcriptase (Human immunodeficiency virus 1) (UniProt Q72547); experiment: Inhibition of HIV1 reverse transcriptase p66/p51 at 50 ug/ml in presence of 250 ug/ml BSA
[7] = biological target: Human immunodeficiency virus type 1 reverse transcriptase (Human immunodeficiency virus 1) (UniProt Q72547); experiment: Inhibition of HIV1 reverse transcriptase p66/p51 at 50 ug/ml in presence of 1000 ug/ml BSA
[8] = biological target: T1, Human immunodeficiency virus type 1 reverse transcriptase; experiment: Inhibition of HIV1 reverse transcriptase p66/p51 using template-primer [oligo(dT)12-18 + poly(rA)] by mixed type competitive inhibition assay
[9] = biological target: T1, Human immunodeficiency virus type 1 reverse transcriptase; experiment: Inhibition of HIV1 reverse transcriptase p66/p51 using TTP substrate by non-competitive inhibition type assay
[10] = biological target: T1, Human immunodeficiency virus type 1 reverse transcriptase; experiment: Inhibition of HIV1 reverse transcriptase p66/p51 using template-primer [oligo(dT)12-18 + poly(rA)] by competitive type inhibition assay
[11] = biological target: T1, Human immunodeficiency virus type 1 reverse transcriptase; experiment: Inhibition of HIV1 reverse transcriptase p66/p51 using TTP substrate by mixed type competitive inhibition assay
[12] = biological target: Human immunodeficiency virus type 1 reverse transcriptase (Human immunodeficiency virus 1) (UniProt Q72547); experiment: Inhibition of HIV1 reverse transcriptase p66/p51 at 200 ug/ml in presence of 250 ug/ml BSA
[13] = biological target: Human immunodeficiency virus type 1 reverse transcriptase (Human immunodeficiency virus 1) (UniProt Q72547); experiment: Inhibition of HIV1 reverse transcriptase p66/p51 at 200 ug/ml in presence of 1000 ug/ml BSA

IC50 [1]	IC50 (DNA polymerase beta)	IC50 [2]	IC50 [3]	IC50 [4]	inhibition (DNA)	inhibition [5]	inhibition [6]	inhibition [7]	Ki [8]	Ki [9]	Ki [10]	Ki [11]	inhibition [12]	inhibition [13]	Compound	EC50 (KB)	EC50 (Lu1)	EC50 (LNCaP)	EC50 (ZR-75-1)
24.3 µM	7.4 µM	29.6 µM	21.9 µM	92.8 µM	1.3%	99%	52%	19%	10 µM	7.1 µM	–	–	–	–	C=C1C(=O)O[C@@H](CCCCCCCCCCCCC)[C@@H]1C(=O)O [PROTOLICHESTERINIC ACID]	> 20 µg/mL	> 20 µg/mL	> 20 µg/mL	> 20 µg/mL
–	2.2 µM	59 µM	15.1 µM	> 338 µM	0%	94%	19%	0.8%	6.7 µM	8.3 µM	–	–	–	–	CC1(C)CC[C@]2(C(=O)O)CC=C3[C@]4(C)CC[C@H]5C(C)(C)[C@@H](OC(=O)c6ccc(O)cc6)C[C@@H](O)[C@]5(C)[C@H]4CC[C@@]3(C)[C@H]2C1	> 20 µg/mL	> 20 µg/mL	> 20 µg/mL	> 20 µg/mL
42.9 µM	57.7 µM	56.6 µM	81 µM	272 µM	71%	–	–	–	–	–	6.7 µM	7.1 µM	89%	82%	COc1cc(O)c2c(=O)c3c(O)c(-c4c(O)c([C@@H]5O[C@H](CO)[C@@H](O)[C@H](O)[C@H]5O)c(O)c5c(=O)cc(-c6ccc(O)c(O)c6)oc45)cc(O)c3oc2c1	> 20 µg/mL	> 20 µg/mL	> 20 µg/mL	> 20 µg/mL
1 µM	–	–	–	–	–	–	–	–	–	–	–	–	–	–	CCCc1cc(=O)oc2c3c(c4c(c12)OC(C)(C)C=C4)O[C@H](C)[C@@H](C)[C@@H]3O [CALANOLIDE A]	–	–	–	–
7.2 µM	–	–	–	–	–	–	–	–	–	–	–	–	–	–	CC1=C(C#C/C(C)=C/C=C/C(C)=C/C=C/C=C(C)/C=C/C=C(\C)C(=O)C[C@@]23O[C@]2(C)C[C@@H](O)CC3(C)C)C(C)(C)C[C@H](O)C1 [HALOCYNTHIAXANTHIN]	–	–	–	–
–	> 20 µM	0.2 µM	0.43 µM	> 20 µM	–	–	–	–	–	–	–	–	–	–	Cc1cn([C@H]2C[C@H](N=[N+]=[N-])[C@@H](CO)O2)c(=O)[nH]c1=O [ZIDOVUDINE]	–	–	–	–

Compound	IC50 [1]	IC50 (DNA polymerase beta)	IC50 [2]	IC50 [3]	IC50 [4]	inhibition (DNA)	inhibition [5]	inhibition [6]	inhibition [7]	Ki [8]	Ki [9]	Ki [10]	Ki [11]	inhibition [12]	inhibition [13]	EC50 (KB)	EC50 (Lu1)	EC50 (LNCaP)	EC50 (ZR-75-1)
COc1cc2c(ccc3c4cc(OC)c(OC)cc4c[n+](C)c23)cc1O	–	–	–	–	–	100%	–	–	–	–	–	–	–	–	–	–	–	–	–
